These results are taken from US20230339882A1, “SHP2 INHIBITOR AND COMPOSITION AND APPLICATION THEREOF” (Betta Pharmaceuticals Co., Ltd., priority 2020, published 2023).

Like-named read-outs stand apart in the source and are kept apart here.

The subject of data set [1] is lung cancer cells NCI-H358. Briefly: Cell proliferation assay, CELL TITER-GLO (CTG) luminescence, NCI-H358. The note with it: ultra-low adsorption plate, cultured for 96 hrs. The format is cell-based. In a few lines:
(§1)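 NCI-H358 (2000 cells/well, ultra-low-attachment plates) and MV-4-11 cells were dosed 24 h after seeding at 1000 nM down to 0.1524 nM (3-fold steps). Viable-cell ATP was read by CellTiter-Glo luminescence after 96 h for NCI-H358 and 120 h for MV-4-11. IC50 came from a variable-slope fit of inhibition versus the 0 nM control.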

Data set [2] is described as follows: In vitro metabolic stability in liver microsomes, monkey. It counts as in vitro ADME.
Data set [3] concerns the target T1, hERG potassium channel (Homo sapiens (Human), UniProt Q12809). Briefly: Patch clamp experiments on the hERG ion channel (HEK293 cells overexpressing hERG). The note with it: read-out: hERG; patch clamp, peak tail current, HEK293.
Protocol: (§3) Example C Patch Clamp Experiments to Assess the Effects of Compounds on the hERG Ion Channel
(§4) Dilute the test sample diluent in sequence with extracellular fluid to prepare detection solutions with final concentrations of 0.3 µM, 1 µM, 3 µM, 10 µM and 30 µM. The solubility of the samples to be tested was visually checked.
(§5) The cell line was derived from HEK293 cells and cultured in a 37° C., 5% CO2 incubator. In order to prevent cell senescence caused by contact inhibition, when the cell culture confluence should not exceed 80%, the cells should be passaged every ¾ days, and the inoculation density of each T175 flask should be 2*106 cells. Pre-wash with Phosphate Buffered Saline (PBS), then trypsin/EDTA for 2-3 minutes, stop digestion by adding cell culture medium, and transfer to a new culture bottle.
(§6) HEK293 cells overexpressing the hERG potassium channel were cultured overnight at a cell density below 50%. Experimental cells were transferred to a cell bath embedded in an inverted microscope stage(Diaphot, Nikon) and perfused with extracellular fluid. The extracellular fluid contained 130 mM NaCl, 4 mM KCl, 1.8 mM CaCl2, 1 mM MgCl2, 10 mM glucose and 10 mM HEPES (pH 7.4 with NaOH) at a perfusion rate of 4 ml/min. The inner tube contains 130 mM KCl, 1 mM MgCl2, 5 mM EGTA, 5 mM MgATP and 10 mM HEPES (pH 7.2 with KOH). Membrane currents were recorded using a HEKA EPC-10 patch-clamp amplifier and [sequence] acquisition system (HEKA Instruments Inc., D-67466 Lambrecht, Pfalz, Germany). All experiments were done at room temperature (22-23° C.).
(§7) Electrodes (BF150-86-10) were straightened during the experiments using a P-97 microelectrode puller (Sutter Instrument Company, One Digital Drive, Novato, CA 94949). The inner diameter of the electrode is 1-1.5 mm, and the water entry resistance after filling with internal liquid is 2-4 MΩ.
(§8) When the whole-cell seal is formed, wait for the current to stabilize for 2 minutes (the current decay is less than 5% within 5 minutes, and the tail current value is greater than500 pA). At this time, the peak value of the tail current is the control current value. The extracellular fluid containing the drug to be tested is then perfused. The same procedure was repeated 3-5 times, exposing each cell to 4-6 increasing concentrations of compounds. Blocking and deactivation of hERG during compound exposure and washout were continuously recorded.
(§9) When the whole-cell seal was formed, the cell membrane voltage was clamped at -80 mV, depolarized for 2 seconds every 12 seconds, and the clamping voltage was depolarized from -80 mV to -50 mV under a 5-second repolarization pulse of -50 mV. Measure the peak tail current.
(§10) Peak hERG tail currents were measured under a 5 s repolarization pulse of -50 mV. Each drug concentration was plotted against the current inhibition rate as a function of the logarithm of the compound concentration. The following Hill equation was used to fit a concentration-response curve to fit IC50.
(§11) Y: test value; Bottom: the lowest test value (0); Top: the highest test value (1); Hillcoefficient: the maximum absolute value of the slope of the curve.
(§12) Data are presented as mean ± standard deviation.
The nature of data set [4]: In vitro metabolic stability in liver microsomes, rat. It counts as in vitro ADME. In a few lines:
(§2)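 Liver microsomes (20 mg/mL stock; species per assay) pre-incubated with test compound at 37 °C for 10 min in phosphate buffer pH 7.30 with MgCl2, reaction started with NADPH. Samples taken at 0, 5, 15 and 45 min and quantified by LC-MS/MS. t½ and CLint derived from first-order log-linear decline of percentage remaining.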

The nature of data set [5]: In vitro metabolic stability in liver microsomes, human. It counts as in vitro ADME. In a few lines:
as §2

Data set [6] is described as follows: In vitro metabolic stability in liver microsomes, mouse. The format is in vitro ADME.
The nature of data set [7]: In vitro metabolic stability in liver microsomes, dog. It counts as in vitro ADME.
The test system of another data set is leukemia cells MV-4-11. Put plainly: Cell proliferation assay, CELL TITER-GLO (CTG) luminescence, MV-4-11. The format is cell-based. Particulars: cultured for 120 hrs. The method, boiled down: as §1
The target in data set [8] is T2, SHP2 (Homo sapiens (Human), UniProt Q06124). Briefly: SHP2 allosteric inhibitory enzyme activity assay (DiFMUP fluorescence). The format is biochemical. The note with it: read-out: SHP2 enzymatic activity IC50. The method, boiled down: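 Human SHP2 (0.2 ng) preincubated 1 h at room temperature with 25 µM activating peptide IRS1_pY1172(dPEG8)pY1222 and compound (10-point series from 10 µM) in HEPES/NaCl/KCl/BRIJ-35/EDTA/DTT buffer. DiFMUP then added for 1 h; fluorescence at ex 340/em 450 nm, normalized to no-enzyme and no-inhibitor controls, IC50 from variable-slope fit.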

The target of data set [9] is T2, SHP2. Particulars: according to WO2019183367, cited from earlier work.
Data set [10] deals with T1, hERG potassium channel.
Protocol: as §3, §4, §5, §6, §7, §8, §9, §10, §11, §12

T2 sequence (Q06124 whole entry): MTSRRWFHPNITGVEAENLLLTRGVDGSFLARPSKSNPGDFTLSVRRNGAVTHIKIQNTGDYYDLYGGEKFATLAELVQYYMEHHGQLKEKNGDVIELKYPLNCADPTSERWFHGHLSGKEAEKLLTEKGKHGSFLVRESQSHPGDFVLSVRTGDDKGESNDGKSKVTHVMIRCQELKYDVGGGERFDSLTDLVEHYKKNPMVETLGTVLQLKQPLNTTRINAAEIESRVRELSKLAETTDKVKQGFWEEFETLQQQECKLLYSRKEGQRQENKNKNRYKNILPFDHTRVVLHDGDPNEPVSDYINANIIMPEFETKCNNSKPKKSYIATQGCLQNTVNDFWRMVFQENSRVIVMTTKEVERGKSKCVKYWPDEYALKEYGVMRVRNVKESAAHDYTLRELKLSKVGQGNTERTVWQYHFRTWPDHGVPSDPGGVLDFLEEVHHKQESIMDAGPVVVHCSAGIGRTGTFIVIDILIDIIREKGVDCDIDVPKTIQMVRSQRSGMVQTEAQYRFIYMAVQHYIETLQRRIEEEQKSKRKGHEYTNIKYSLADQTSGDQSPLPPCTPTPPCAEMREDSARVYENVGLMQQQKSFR
T1 sequence (Q12809 whole entry): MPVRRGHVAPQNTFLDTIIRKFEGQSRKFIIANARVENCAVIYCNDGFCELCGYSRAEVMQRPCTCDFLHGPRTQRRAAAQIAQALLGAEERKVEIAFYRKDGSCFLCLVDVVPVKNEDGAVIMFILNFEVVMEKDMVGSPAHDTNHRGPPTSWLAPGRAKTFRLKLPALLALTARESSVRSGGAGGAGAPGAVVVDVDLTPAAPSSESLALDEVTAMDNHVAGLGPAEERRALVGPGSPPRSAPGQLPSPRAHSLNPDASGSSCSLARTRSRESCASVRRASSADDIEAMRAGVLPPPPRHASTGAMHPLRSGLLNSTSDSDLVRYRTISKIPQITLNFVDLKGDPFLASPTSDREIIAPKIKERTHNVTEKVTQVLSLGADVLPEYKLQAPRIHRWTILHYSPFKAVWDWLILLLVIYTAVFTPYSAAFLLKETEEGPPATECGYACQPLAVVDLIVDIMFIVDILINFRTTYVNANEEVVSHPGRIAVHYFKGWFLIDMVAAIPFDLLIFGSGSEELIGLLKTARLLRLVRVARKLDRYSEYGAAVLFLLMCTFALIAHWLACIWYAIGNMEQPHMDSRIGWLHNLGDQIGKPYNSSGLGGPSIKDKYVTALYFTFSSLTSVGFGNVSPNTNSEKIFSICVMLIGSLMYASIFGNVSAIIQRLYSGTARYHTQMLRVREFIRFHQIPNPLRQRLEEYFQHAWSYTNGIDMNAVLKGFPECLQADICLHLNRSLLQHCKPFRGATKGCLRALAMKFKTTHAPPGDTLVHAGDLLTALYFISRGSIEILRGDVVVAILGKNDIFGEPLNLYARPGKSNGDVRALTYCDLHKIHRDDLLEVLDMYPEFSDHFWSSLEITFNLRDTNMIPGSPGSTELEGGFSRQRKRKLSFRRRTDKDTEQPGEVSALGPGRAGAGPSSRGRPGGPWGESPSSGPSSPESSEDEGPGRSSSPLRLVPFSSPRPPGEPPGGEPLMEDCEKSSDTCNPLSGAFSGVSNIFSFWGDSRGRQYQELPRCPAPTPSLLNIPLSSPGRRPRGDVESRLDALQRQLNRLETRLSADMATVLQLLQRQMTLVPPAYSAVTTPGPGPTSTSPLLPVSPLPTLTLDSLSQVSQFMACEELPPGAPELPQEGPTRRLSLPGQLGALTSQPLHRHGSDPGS

Take `N[C@@H]1c2ccccc2CC12CCN(c1ncc(C#CCOc3ccc(S(N)(=O)=O)cc3)nc1CO)CC2` [Compound A32, (S)-4-((3-(5-(1-amino-1,3-dihydrospiro[indene-2,4′-piperidin]-1′-yl)-6-(hydroxymethy 1)pyrazin-2-yl)prop-2-yn-1-yl)oxy)benzenesulfonamide]: the IC50 in data set [1] was 9 nM; at hERG potassium channel [3], above 20000 nM; in the data set with leukemia cells MV-4-11, 3.4 nM; on SHP2 [8] it was 1.3 nM. In addition, the “CLint (µL/min/mg protein) monkey” value in data set [2] is 10.1 µL/min/mg protein. Moreover, the “CLint (µL/min/mg protein) rat” value in [4] worked out at 14.7 µL/min/mg protein. For the same molecule, in [5], the “CLint (µL/min/mg protein) human” value is 2.2 µL/min/mg protein. In addition, in data set [6], the “CLint (µL/min/mg protein) mouse” value came to 10.6 µL/min/mg protein. In data set [7] (dog liver microsomes), the “CLint (µL/min/mg protein) dog” value is given as 1.9 µL/min/mg protein.

As for `N[C@@H]1c2ccccc2CC12CCN(c1ncc(Sc3ccnc(Cl)c3Cl)nc1CO)CC2` [compound 243], the IC50 at SHP2 [9] (read-out: IC50 in the SHP2 allosteric inhibition test (lower bound)) is above 50 nM; at SHP2 [9] (read-out: IC50 in the SHP2 allosteric inhibition test (upper bound)), at most 1000 nM.

For `NC(=O)c1ccc(NCC#Cc2cnc(N3CCC4(CC3)Cc3ccccc3[C@H]4N)c(CO)n2)cc1` [Compound A48, (S)-4-((3-(5-(1-amino-1,3-dihydrospiro[indene-2,4′-piperidin]-1′-yl)-6-(hydroxymethy 1)pyrazin-2-yl)prop-2-yn-1-yl)amino)benzamide], the IC50 is 12 nM in data set [1], above 20000 nM on hERG potassium channel [10], 1.7 nM in the data set on leukemia cells MV-4-11 and 2 nM at SHP2 [8]. Also, the “CLint (µL/min/mg protein) monkey” value in data set [2] is 8.6 µL/min/mg protein. Further, the “CLint (µL/min/mg protein) rat” value in data set [4] is on record as 15.8 µL/min/mg protein. Further, the “CLint (µL/min/mg protein) human” value in data set [5] is listed as 7.3 µL/min/mg protein. In addition, the “CLint (µL/min/mg protein) mouse” value in [6] was determined as 15.2 µL/min/mg protein. In data set [7] (dog, microsomes), the “CLint (µL/min/mg protein) dog” value was found to be 26.3 µL/min/mg protein.
